# Reference: ChEMBL document CHEMBL1821584, “Docking and 3D-QSAR (quantitative structure activity relationship) studies of flavones, the potent inhibitors of p-glycoprotein targeting the nucleotide binding domain” (Eur J Med Chem, 2011)
# Biological target: ATP-dependent translocase ABCB1 (Homo sapiens, UniProt P08183)
# Assay: Binding affinity to ABCB1 nucleotide binding domain 2
# ATP-dependent translocase ABCB1, sequence (P08183 whole entry, the tested form may be a part): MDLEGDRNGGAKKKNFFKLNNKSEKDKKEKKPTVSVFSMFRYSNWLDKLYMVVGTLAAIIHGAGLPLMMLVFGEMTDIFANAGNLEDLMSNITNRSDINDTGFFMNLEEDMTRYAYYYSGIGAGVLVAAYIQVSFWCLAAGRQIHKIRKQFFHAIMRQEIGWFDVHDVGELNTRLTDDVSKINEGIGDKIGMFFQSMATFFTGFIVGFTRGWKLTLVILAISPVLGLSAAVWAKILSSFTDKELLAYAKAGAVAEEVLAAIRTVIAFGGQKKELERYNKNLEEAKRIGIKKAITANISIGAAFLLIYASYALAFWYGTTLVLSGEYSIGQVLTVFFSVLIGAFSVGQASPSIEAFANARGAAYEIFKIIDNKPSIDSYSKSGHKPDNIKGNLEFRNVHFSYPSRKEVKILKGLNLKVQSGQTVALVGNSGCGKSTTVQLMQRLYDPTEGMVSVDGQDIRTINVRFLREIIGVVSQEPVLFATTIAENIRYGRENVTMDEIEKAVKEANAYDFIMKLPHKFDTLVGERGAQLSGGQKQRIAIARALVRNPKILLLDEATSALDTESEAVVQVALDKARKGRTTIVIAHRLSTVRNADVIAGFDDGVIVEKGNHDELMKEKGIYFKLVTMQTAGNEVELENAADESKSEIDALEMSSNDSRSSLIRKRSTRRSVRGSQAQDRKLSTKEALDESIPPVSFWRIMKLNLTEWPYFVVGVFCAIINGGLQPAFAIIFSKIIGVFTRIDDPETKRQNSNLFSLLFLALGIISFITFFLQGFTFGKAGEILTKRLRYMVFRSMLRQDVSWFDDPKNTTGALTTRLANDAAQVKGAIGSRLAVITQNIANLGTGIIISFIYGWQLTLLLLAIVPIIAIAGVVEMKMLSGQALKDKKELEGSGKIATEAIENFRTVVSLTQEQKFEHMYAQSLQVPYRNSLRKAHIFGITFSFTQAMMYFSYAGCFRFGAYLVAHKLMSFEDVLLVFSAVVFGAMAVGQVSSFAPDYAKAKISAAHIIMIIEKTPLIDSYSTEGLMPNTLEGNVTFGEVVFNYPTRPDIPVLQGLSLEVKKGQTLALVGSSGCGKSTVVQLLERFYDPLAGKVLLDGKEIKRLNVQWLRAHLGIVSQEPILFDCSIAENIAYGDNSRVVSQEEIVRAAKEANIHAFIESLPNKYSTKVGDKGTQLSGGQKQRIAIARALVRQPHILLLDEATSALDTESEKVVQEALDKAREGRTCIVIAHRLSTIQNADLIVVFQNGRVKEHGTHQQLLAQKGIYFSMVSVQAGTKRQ
row,SMILES,Kd
1,CC(C)Oc1cc(O)c2c(=O)cc(-c3ccccc3)oc2c1,1000 nM
2,O=c1cc(-c2ccccc2)oc2cc(OCc3ccccc3)cc(O)c12,67.6 nM
3,O=c1cc(-c2ccccc2)oc2c(Cc3ccccc3)c(O)cc(O)c12,1000 nM
4,O=c1c(O)c(-c2ccc(F)cc2)oc2cc(O)cc(O)c12,6760 nM
5,CC(C)Oc1c(C(C)C)c(O)c2c(=O)cc(-c3ccccc3)oc2c1C(C)C,33.1 nM
6,O=c1cc(-c2ccc(F)c(F)c2)oc2cc(O)cc(O)c12,6310 nM
7,C=CC(C)(C)c1c(OC)cc(O)c2c(=O)c(OC)c(-c3ccccc3)oc12,151 nM
8,CC(C)=Cc1c(O)cc2oc(-c3ccccc3)c(O)c(=O)c2c1O,209 nM
9,CC(C)=Cc1c(O)cc(O)c2c(=O)c(O)c(-c3ccccc3)oc12,219 nM
10,COc1c(-c2ccccc2)oc2cc(O)cc(O)c2c1=O,8910 nM
11,O=c1cc(-c2ccc(I)cc2)oc2cc(O)cc(O)c12,2190 nM
12,CC(C)=CCC/C(C)=C/c1c(O)cc2oc(-c3ccccc3)cc(=O)c2c1O,44.7 nM
13,CC(C)=CCC/C(C)=C/c1c(O)cc(O)c2c(=O)cc(-c3ccccc3)oc12,25.1 nM
14,C=CC(C)(C)c1c(O)cc(O)c2c(=O)cc(-c3ccc(O)cc3)oc12,708 nM
15,C=CC(C)(C)c1c(O)cc(O)c2c(=O)cc(-c3ccccc3)oc12,200 nM
16,O=c1cc(-c2ccccc2)oc2cc(O)ccc12 [7-HYDROXYFLAVONE],34700 nM
17,O=c1cc(-c2ccc(O)cc2)oc2cc(O)cc(O)c12 [APIGENIN],10000 nM
18,O=c1cc(-c2ccccc2)oc2cc(O)cc(O)c12 [CHRYSIN],8910 nM
19,O=c1cc(-c2ccccc2)oc2ccccc12 [FLAVONE],33900 nM
20,COc1ccc(-c2oc3cc(O)cc(O)c3c(=O)c2O)cc1 [KAEMPFERIDE],4470 nM
21,O=c1c(O)c(-c2ccc(O)cc2)oc2cc(O)cc(O)c12 [KAEMPFEROL],6760 nM
22,COc1cc(O)c2c(=O)cc(-c3ccccc3)oc2c1 [TECHTOCHRYSIN],6310 nM

# Further molecules by falling Kd, results first:
row,Kd,SMILES
1,26300 nM,O=c1c(-c2ccc(O)cc2)coc2cc(O)cc(O)c12 [GENISTEIN]
2,10000 nM,O=c1c(O)c(-c2ccccc2)oc2ccccc12 [FLAVONOL]
3,5890 nM,O=c1c(O)c(-c2ccccc2)oc2cc(O)cc(O)c12 [GALANGIN]
4,3980 nM,O=c1c(O)c(-c2ccc(Cl)cc2Cl)oc2cc(O)cc(O)c12
5,3090 nM,Cc1c(O)cc2oc(-c3ccccc3)cc(=O)c2c1O
6,2000 nM,O=c1c(O)c(C(c2ccccc2)c2ccccc2)oc2cc(O)cc(O)c12
7,1290 nM,COc1cc2oc(-c3ccccc3)cc(=O)c2c(O)c1C
8,1100 nM,O=c1c(O)c(-c2ccc(I)cc2)oc2cc(O)cc(O)c12
9,447 nM,C=CC(C)(C)c1c(O)cc(O)c2c(=O)c(O)c(-c3ccccc3)oc12
10,339 nM,O=c1cc(-c2ccccc2)oc2cc(O)c(Cc3ccccc3)c(O)c12
11,302 nM,CC(C)=Cc1c(O)cc2oc(-c3ccccc3)cc(=O)c2c1O
12,282 nM,CC(C)Oc1cc2oc(-c3ccccc3)cc(=O)c2c(O)c1C(C)C
13,282 nM,CC(C)=Cc1c(O)cc(O)c2c(=O)cc(-c3ccccc3)oc12
14,209 nM,CC(C)c1c(O)cc2oc(-c3ccccc3)cc(=O)c2c1O
15,200 nM,C=CC(C)(C)c1c(O)cc(O)c2c(=O)c(O)c(-c3ccc(OC)cc3)oc12
16,57.5 nM,CCCCCCCCc1ccc(-c2oc3cc(O)cc(O)c3c(=O)c2O)cc1
17,36.3 nM,O=c1cc(-c2ccccc2)oc2c(Cc3ccccc3)c(O)c(Cc3ccccc3)c(O)c12
18,15.1 nM,CC(C)=Cc1c(O)c(C=C(C)C)c2oc(-c3ccccc3)cc(=O)c2c1O
